Measured values published in PubChem BioAssay (NCI).
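Results reflect a 48-hour exposure of cells in 96-well plates to compound at five concentrations. The concentration for 50% growth inhibition is given as GI50. TGI denotes the concentration required for complete inhibition of growth.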

What was measured:
Test in all cases: DTP human tumour cell line panel, 48 h
A498 renal = test system: A498 renal
OVCAR-4 ovarian = test system: OVCAR-4 ovarian
MDA-MB-231 breast = test system: MDA-MB-231 breast
UACC-257 melanoma = test system: UACC-257 melanoma
HL-60(TB) leukemia = test system: HL-60(TB) leukemia
CAKI-1 renal = test system: CAKI-1 renal
PC-3 prostate = test system: PC-3 prostate
MDA-MB-435 = test system: MDA-MB-435
OVCAR-3 ovarian = test system: OVCAR-3 ovarian
MALME-3M melanoma = test system: MALME-3M melanoma
SF-539 CNS = test system: SF-539 CNS
SW-620 colon = test system: SW-620 colon
SN12C renal = test system: SN12C renal
K-562 leukemia = test system: K-562 leukemia
SNB-19 CNS = test system: SNB-19 CNS
HS 578T breast = test system: HS 578T breast
NCI-H226 lung = test system: NCI-H226 lung
HCT-15 colon = test system: HCT-15 colon
NCI-H522 lung = test system: NCI-H522 lung
SK-OV-3 ovarian = test system: SK-OV-3 ovarian
A549 NSCLC = test system: A549 NSCLC
LOX IMVI melanoma = test system: LOX IMVI melanoma
SF-268 CNS = test system: SF-268 CNS
ACHN renal = test system: ACHN renal
RPMI-8226 leukemia = test system: RPMI-8226 leukemia
HCC-2998 colon = test system: HCC-2998 colon
NCI-H460 lung = test system: NCI-H460 lung
NCI/ADR-RES ovarian = test system: NCI/ADR-RES ovarian
IGROV1 ovarian = test system: IGROV1 ovarian
SNB-75 CNS = test system: SNB-75 CNS
HOP-62 NSCLC = test system: HOP-62 NSCLC
BT-549 breast = test system: BT-549 breast
MCF7 breast = test system: MCF7 breast
TK-10 renal = test system: TK-10 renal
786-0 renal = test system: 786-0 renal
SR leukemia = test system: SR leukemia
NCI-H23 lung = test system: NCI-H23 lung
T-47D breast = test system: T-47D breast
COLO 205 colon = test system: COLO 205 colon
SK-MEL-28 melanoma = test system: SK-MEL-28 melanoma
HOP-92 NSCLC = test system: HOP-92 NSCLC
OVCAR-8 ovarian = test system: OVCAR-8 ovarian
SK-MEL-2 melanoma = test system: SK-MEL-2 melanoma
SF-295 CNS = test system: SF-295 CNS
CCRF-CEM leukemia = test system: CCRF-CEM leukemia
HCT-116 colon = test system: HCT-116 colon
HT29 colon = test system: HT29 colon
U251 CNS = test system: U251 CNS
UACC-62 melanoma = test system: UACC-62 melanoma
OVCAR-5 ovarian = test system: OVCAR-5 ovarian
DU-145 prostate = test system: DU-145 prostate
SK-MEL-5 melanoma = test system: SK-MEL-5 melanoma
UO-31 renal = test system: UO-31 renal
RXF 393 renal = test system: RXF 393 renal
M14 melanoma = test system: M14 melanoma
MOLT-4 leukemia = test system: MOLT-4 leukemia
EKVX NSCLC = test system: EKVX NSCLC
KM12 colon = test system: KM12 colon

SMILES: COC1=C(C)C(=O)N2[C@@H]1[C@H](c1ccccc1)OC21C=CC(=O)C=C1
- GI50 (A498 renal): 27.4 µM
- TGI (A498 renal): > 89.4 µM
- GI50 (OVCAR-4 ovarian): 3.51 µM
- TGI (OVCAR-4 ovarian): 16.6 µM
- GI50 (MDA-MB-231 breast): 2.77 µM
- TGI (MDA-MB-231 breast): 9.27 µM
- GI50 (UACC-257 melanoma): 4.97 µM
- TGI (UACC-257 melanoma): 15.5 µM
- GI50 (HL-60(TB) leukemia): 0.922 µM
- TGI (HL-60(TB) leukemia): 4.57 µM
- GI50 (CAKI-1 renal): 0.804 µM
- TGI (CAKI-1 renal): 2.39 µM
- GI50 (PC-3 prostate): 7.81 µM
- TGI (PC-3 prostate): > 32 µM
- GI50 (MDA-MB-435): 1.97 µM
- TGI (MDA-MB-435): 7.32 µM
- GI50 (OVCAR-3 ovarian): 1.09 µM
- TGI (OVCAR-3 ovarian): 3.74 µM
- GI50 (MALME-3M melanoma): 1.08 µM
- TGI (MALME-3M melanoma): 4.32 µM
- GI50 (SF-539 CNS): 4.73 µM
- TGI (SF-539 CNS): 11.5 µM
- GI50 (SW-620 colon): 0.923 µM
- TGI (SW-620 colon): 2.78 µM
- GI50 (SN12C renal): 3.64 µM
- TGI (SN12C renal): 27.7 µM
- GI50 (K-562 leukemia): 1.11 µM
- TGI (K-562 leukemia): > 67 µM
- GI50 (SNB-19 CNS): 42.8 µM
- TGI (SNB-19 CNS): > 100 µM
- GI50 (HS 578T breast): 12.5 µM
- TGI (HS 578T breast): > 40.9 µM
- GI50 (NCI-H226 lung): 9.79 µM
- TGI (NCI-H226 lung): > 31.1 µM
- GI50 (HCT-15 colon): 0.697 µM
- TGI (HCT-15 colon): 2.21 µM
- GI50 (NCI-H522 lung): 0.555 µM
- TGI (NCI-H522 lung): 1.35 µM
- GI50 (SK-OV-3 ovarian): > 41.9 µM
- TGI (SK-OV-3 ovarian): > 100 µM
- GI50 (A549 NSCLC): 10.8 µM
- TGI (A549 NSCLC): 38.9 µM
- GI50 (LOX IMVI melanoma): 0.757 µM
- TGI (LOX IMVI melanoma): 2.69 µM
- GI50 (SF-268 CNS): 8.89 µM
- TGI (SF-268 CNS): 31.9 µM
- GI50 (ACHN renal): 0.658 µM
- TGI (ACHN renal): 1.36 µM
- GI50 (RPMI-8226 leukemia): 1.33 µM
- TGI (RPMI-8226 leukemia): 8.44 µM
- GI50 (HCC-2998 colon): 5.86 µM
- TGI (HCC-2998 colon): 10.9 µM
- GI50 (NCI-H460 lung): 8.13 µM
- TGI (NCI-H460 lung): 21.8 µM
- GI50 (NCI/ADR-RES ovarian): 3.36 µM
- TGI (NCI/ADR-RES ovarian): > 47.4 µM
- GI50 (IGROV1 ovarian): 6.83 µM
- TGI (IGROV1 ovarian): 21.7 µM
- GI50 (SNB-75 CNS): 12.1 µM
- TGI (SNB-75 CNS): 50 µM
- GI50 (HOP-62 NSCLC): 10.8 µM
- TGI (HOP-62 NSCLC): 24.9 µM
- GI50 (BT-549 breast): 2.97 µM
- TGI (BT-549 breast): 9.47 µM
- GI50 (MCF7 breast): 1.07 µM
- TGI (MCF7 breast): 5.39 µM
- GI50 (TK-10 renal): 1.41 µM
- TGI (TK-10 renal): 6.29 µM
- GI50 (786-0 renal): 2.86 µM
- TGI (786-0 renal): 8.22 µM
- GI50 (SR leukemia): 0.673 µM
- TGI (SR leukemia): 15.5 µM
- GI50 (NCI-H23 lung): 4.07 µM
- TGI (NCI-H23 lung): 18.5 µM
- GI50 (T-47D breast): 1.73 µM
- TGI (T-47D breast): 9.99 µM
- GI50 (COLO 205 colon): 2.56 µM
- TGI (COLO 205 colon): 7.81 µM
- GI50 (SK-MEL-28 melanoma): 1.2 µM
- TGI (SK-MEL-28 melanoma): 6.68 µM
- GI50 (HOP-92 NSCLC): 2.48 µM
- TGI (HOP-92 NSCLC): 7.65 µM
- GI50 (OVCAR-8 ovarian): 1.1 µM
- TGI (OVCAR-8 ovarian): > 36.5 µM
- GI50 (SK-MEL-2 melanoma): 6.92 µM
- TGI (SK-MEL-2 melanoma): 19.6 µM
- GI50 (SF-295 CNS): 15.5 µM
- TGI (SF-295 CNS): 46.9 µM
- GI50 (CCRF-CEM leukemia): 0.925 µM
- TGI (CCRF-CEM leukemia): 3.87 µM
- GI50 (HCT-116 colon): 0.984 µM
- TGI (HCT-116 colon): 3.81 µM
- GI50 (HT29 colon): 1.28 µM
- TGI (HT29 colon): 4.28 µM
- GI50 (U251 CNS): 5.61 µM
- TGI (U251 CNS): 11 µM
- GI50 (UACC-62 melanoma): 1.35 µM
- TGI (UACC-62 melanoma): 5.51 µM
- GI50 (OVCAR-5 ovarian): 3.78 µM
- TGI (OVCAR-5 ovarian): 11.6 µM
- GI50 (DU-145 prostate): 3.69 µM
- TGI (DU-145 prostate): 19.1 µM
- GI50 (SK-MEL-5 melanoma): 5.05 µM
- TGI (SK-MEL-5 melanoma): 9.94 µM
- GI50 (UO-31 renal): 1.31 µM
- TGI (UO-31 renal): 3.88 µM
- GI50 (RXF 393 renal): 1.42 µM
- TGI (RXF 393 renal): 6.26 µM
- GI50 (M14 melanoma): 4.39 µM
- TGI (M14 melanoma): 12.5 µM
- GI50 (MOLT-4 leukemia): 2.23 µM
- TGI (MOLT-4 leukemia): 11 µM
- GI50 (EKVX NSCLC): 10.7 µM
- TGI (EKVX NSCLC): > 33.8 µM
- GI50 (KM12 colon): 5.99 µM
- TGI (KM12 colon): 12.9 µM
